Among the data in ChEMBL document CHEMBL1153141, “Anti-tumor activity of a new series of benzoxazepine derivatives in breast cancer” (Bioorg Med Chem Lett, 2010) are IC50 and Activity values, retold here.

pIC50: −log10 of the molar value. Where a name gives a salt, the structure may show the parent alone. Activity calls are given as the source filed them. No cut-off for these calls is given here. Some results are limits rather than exact numbers.

Data set [1] concerns MCF7. The experiment in a line: Cytotoxicity against human MCF7 cells after 18 hrs by MTT assay. Type of data set: functional, cell-based. To be noted: MCF7, 18 h.
Another data set relates to DU-145. Kind of data set: Cytotoxicity against human DU145 cells after 18 hrs by MTT assay. Format: functional, cell-based. To be noted: DU-145, 18 h. (Tetrazolium assays rely on reduction of a dye to a coloured formazan, in cell work by metabolically active cells.)
Another data set concerns MDA-MB-231. Kind of data set: Cytotoxicity against human MDA-MB-231 cells after 18 hrs by MTT assay. Format: functional, cell-based. To be noted: MDA-MB-231, 18 h.
The test system of a further data set is Ishikawa. The experiment in a line: Cytotoxicity against human Ishikawa cells after 18 hrs by MTT assay. Format: functional, cell-based.
A further data set relates to HEK293. Kind of data set: Cytotoxicity against HEK293 cells after 18 hrs by MTT assay. Type of data set: cell-based. The following applies: human, hek293, 18 h.
Data set [2] has as its system MCF7. The experiment in a line: Antitumor activity against human MCF7 cells xenografted in mouse assessed as tumor volume regression at 8 to 16 mg/kg, po for 30 days. Type of data set: functional, organism-based.
For data set [3], the system named is MCF7. Kind of data set: Cell cycle arrest in human MCF7 cells assessed as accumulation at G0/G1 phase at 5 to 10 uM after 24 hrs using […] by flow cytometry relative to control. Type of data set: functional, cell-based. Background: In flow cytometry, cells or beads pass a laser one at a time.
In data set [4] the test system is MCF7. Kind of data set: Induction of apoptosis in human MCF7 cells at 5 to 10 uM after 24 hrs using annexin V-propidium iodide staining by flow cytometry relative to control. Format: functional, cell-based.

In the case of `COc1ccc2c(c1)OC[C@H](Cc1ccc(OCCN3CCOCC3)cc1)N(S(=O)(=O)c1ccc(C)cc1)C2`, the pIC50 in the data set with MCF7 [1], with DU-145, in the data set with MDA-MB-231 and in the data set with Ishikawa was below 4.30 each time.

`Cc1ccc(S(=O)(=O)N2Cc3ccccc3OC[C@@H]2CC(C)C)cc1`: the pIC50 in the data set with MCF7 [1], in the data set with DU-145, in the data set with MDA-MB-231 and with Ishikawa was below 4.30 throughout.

On to `Cc1ccc(S(=O)(=O)N2Cc3ccccc3OCC2Cc2ccc(OCCN3CCOCC3)cc2)cc1` (stereo unspecified), for which the pIC50 in the data set with MCF7 [1], in the data set with DU-145, with MDA-MB-231 and in the data set with Ishikawa was below 4.30 each time.

For `CC/C(=C(\c1ccccc1)c1ccc(OCCN(C)C)cc1)c1ccccc1` [TAMOXIFEN CITRATE], the negative-log IC50 (pIC50) (as a rule, the negative decadic logarithm of the IC50, by convention in mol/L) with MCF7 [1] was 4.99; in the data set on DU-145, 4.82; in the data set on MDA-MB-231 it was 4.91; in the data set with Ishikawa, 4.90.

Regarding `COc1cccc2c1OC[C@H](Cc1ccc(OCCN3CCCC3)cc1)N(S(=O)(=O)c1ccc(C)cc1)C2`, the negative-log IC50 (pIC50) in the data set on MCF7 [1], in the data set with DU-145, with MDA-MB-231 and with Ishikawa was below 4.30 each time.

As to `COc1cccc2c1OC[C@H](Cc1ccc(OCCN3CCCCCC3)cc1)N(S(=O)(=O)c1ccc(C)cc1)C2`, the negative-log IC50 (pIC50) in the data set with MCF7 [1], in the data set on DU-145, in the data set with MDA-MB-231 and in the data set with Ishikawa was below 4.30 throughout.

On to `Cc1ccc(S(=O)(=O)N2Cc3ccccc3OC[C@@H]2Cc2ccccc2)cc1`, for which the negative-log IC50 (pIC50) with MCF7 [1], with DU-145, in the data set with MDA-MB-231 and in the data set with Ishikawa was below 4.30 each time.

Consider `COc1ccc2c(c1)OC[C@H](Cc1ccc(OCCN3CCCC3)cc1)N(S(=O)(=O)c1ccc(C)cc1)C2`, for which the pIC50 with MCF7 [1], with DU-145, with MDA-MB-231 and in the data set on Ishikawa was below 4.30 in each case.

As for `COc1cccc2c1OC[C@H](Cc1ccc(OCCN(C)C)cc1)N(S(=O)(=O)c1ccc(C)cc1)C2`, the pIC50 in the data set with MCF7 [1], in the data set with DU-145, with MDA-MB-231 and with Ishikawa was below 4.30 in each case.

Take `Cc1ccc(S(=O)(=O)N2Cc3ccccc3OC[C@@H]2C)cc1`: the pIC50 in the data set on MCF7 [1], with DU-145, with MDA-MB-231 and in the data set on Ishikawa was below 4.30 each time.

As for `Cc1ccc(S(=O)(=O)N2Cc3ccccc3OC[C@@H]2Cc2ccc(OCCN3CCCC3)cc2)cc1`, the pIC50 was 5.03 with MCF7 [1], 4.52 in the data set with DU-145, 4.89 in the data set on MDA-MB-231 and 4.62 with Ishikawa. For the same molecule, the Activity entry in the data set on HEK293 is given as “Non-toxic”.

Regarding `Cc1ccc(S(=O)(=O)N2Cc3ccccc3OC[C@H]2Cc2ccccc2)cc1`, the pIC50 in the data set with MCF7 [1], with DU-145, in the data set with MDA-MB-231 and in the data set with Ishikawa was below 4.30 throughout.

Take `CCN(CC)CCOc1ccc(C[C@H]2COc3c(cccc3OC)CN2S(=O)(=O)c2ccc(C)cc2)cc1`: the pIC50 in the data set with MCF7 [1], in the data set with DU-145, with MDA-MB-231 and in the data set on Ishikawa was below 4.30 in each case.

For the molecule `COc1ccc2c(c1)OC[C@H](Cc1ccc(OCCN(C)C)cc1)N(S(=O)(=O)c1ccc(C)cc1)C2`, the negative-log IC50 (pIC50) in the data set with MCF7 [1], with DU-145, with MDA-MB-231 and with Ishikawa was below 4.30 throughout.

Take `COc1ccc2c(c1)OC[C@H](Cc1ccc(OCCN3CCCCC3)cc1)N(S(=O)(=O)c1ccc(C)cc1)C2`: the pIC50 in the data set with MCF7 [1], in the data set on DU-145, with MDA-MB-231 and in the data set on Ishikawa was below 4.30 throughout.

Regarding `Cc1ccc(S(=O)(=O)N2Cc3ccccc3OC[C@@H]2Cc2ccc(O)cc2)cc1`, the pIC50 in the data set on MCF7 [1] is 4.54; in the data set with MDA-MB-231, below 4.30; in the data set with Ishikawa, 4.47.

Consider `COc1cccc2c1OC[C@H](Cc1ccc(OCCN3CCOCC3)cc1)N(S(=O)(=O)c1ccc(C)cc1)C2`, for which the pIC50 with MCF7 [1], in the data set with DU-145, in the data set with MDA-MB-231 and with Ishikawa was below 4.30 throughout.

Regarding `Cc1ccc(S(=O)(=O)N2Cc3ccccc3OC[C@@H]2C(C)C)cc1`, the negative logarithm of the IC50 (pIC50) in the data set on MCF7 [1], in the data set with DU-145, with MDA-MB-231 and with Ishikawa was below 4.30 in each case.

With `Cc1ccc(S(=O)(=O)N2Cc3ccccc3OC[C@@H]2Cc2c[nH]c3ccccc23)cc1`, the pIC50 in the data set on MCF7 [1], in the data set with DU-145, in the data set on MDA-MB-231 and in the data set on Ishikawa was below 4.30 in each case.

In the case of `CCC(C)[C@H]1COc2ccccc2CN1S(=O)(=O)c1ccc(C)cc1` (stereo partly specified), the negative-log IC50 (pIC50) in the data set on MCF7 [1], in the data set with DU-145, in the data set on MDA-MB-231 and in the data set with Ishikawa was below 4.30 each time.

For the molecule `CCN(CC)CCOc1ccc(C[C@H]2COc3ccccc3CN2S(=O)(=O)c2ccc(C)cc2)cc1`, the negative-log IC50 (pIC50) was 5.19 with MCF7 [1], 4.64 with DU-145, 4.76 in the data set on MDA-MB-231 and 4.65 in the data set with Ishikawa. Besides, the result with MCF7 [2], with MCF7 [3] and with MCF7 [4] was Active.

As to `COc1cccc2c1OC[C@H](Cc1ccc(OCCN3CCCCC3)cc1)N(S(=O)(=O)c1ccc(C)cc1)C2`, the negative-log IC50 (pIC50) with MCF7 [1], in the data set on DU-145, in the data set with MDA-MB-231 and in the data set with Ishikawa was below 4.30 each time.
